Here are results for one molecule from patent US12357608B2, “Methods and compositions utilizing RRx-001 combination therapy for radioprotection” (priority 2018, dated 2025).

“Also recorded” adds a separate entry of the source.

One data set relates to bone marrow. As to the kind of experiment: Histopathological analysis of bone marrow sternebrae (cellularity grade, megakaryocytes) after sublethal TBI or sham irradiation. It is filed as in vivo, mice. The protocol:
To determine the pathophysiological effects of RRx-001 on hematopoietic protection in mice, CD2F1 male mice were treated with 10 mg/kg RRx-001 or the vehicle control 24 hours prior to a sublethal dose of TBI (7 Gy at 0.6 Gy/min using High-level Cobalt-60) or sham irradiation (day 0) according to the table below.
CD2F1 male mice (n=3/group) were divided into 4 experimental groups: 1) irradiation+vehicle, 2) irradiation+RRx-001, 3) sham-irradiation+vehicle and 4) sham-irradiation+RRx-001. Either 10 mg/kg RRx-001 or the vehicle control were IP injected 24 hours prior to either irradiation or sham-irradiation (day 0). On days 2, 7, 14, 21, and 28 post-irradiation (day 0) mice were humanely euthanized. Blood, bone marrow, and sternebrae were then collected. This experiment was performed in duplicate for a total of n=6 mice/group/time point.
Sternebrae from euthanized mice (n=6/group/time point) were collected on days 2, 7, 14, 21 and 28 post-irradiation. Sternebrae were fixed in 10% zinc-buffered formalin for at least 24 hours and up to 7 days. Fixed sternebrae were decalcified for 3 hr in 12-18% sodium EDTA (pH 7.4-7.5) and specimens dehydrated using graded ethanol concentrations and embedded in paraffin. Longitudinal 4 μm sections were stained with regular hematoxylin and eosin. Two board-certified pathologist conducted histopathological evaluation of the samples. One of the pathologist scored all the samples blindly. Bone marrow was evaluated in situ within sternebrae and graded (Grade 1: <10%; Grade 2: 11-30%; Grade 3: 31-60%; Grade 4: 61-89%; Grade 5: >90%) for total cellularity. Megakaryocytes were also quantified based on the average per 10 high power fields (HPF) at 400× magnification using a BX43 or BX53 microscope (Olympus, Minneapolis, MN). Images were captured with an Olympus DP22 camera and imported into Olympus Cellsens Standard software for review.
Blood parameters were compared between treatment groups using an analysis of variance (ANOVA). The Wilcoxon test was also used for sensitivity and to potentially address data departures from normality. A longitudinal mixed model repeated measures was also implemented to provide a more complete data analysis of the sham-irradiated treatment groups' difference in overall time profile mean based on the blood parameters. Bone marrow data (megakaryocytes and grade) statistical analysis was carried out using a parametric test consisting of a general linear model analysis of variance (ANOVA with factors consisting of treatment group and pathologist) and the Kruskal-Wallis nonparametric test. The statistical data analysis was carried out using R software (Version 3.4.3, 2016) and the graphs made using GraphPad Prism version 7.03 (GraphPad Software, La Jolla, CA).
To determine the effect of RRx-001 on bone marrow, a histopathological analysis of bone marrow sternebrae was performed and the cellularity, as reported by grade (grade 1: <10%; grade 2: 11-30%; grade 3: 31-60%; grade 4: 61-89%; grade 5: ≥90% cellularity), and megakaryocyte numbers (averaged per 10 high-powered fields; HPF) were ascertained by two pathologists, one of which scored all the samples blindly (TAS, WEC).

The test system of the next data set is THP-1 cells. As to the kind of experiment: Western blotting of ARE proteins in THP-1 monocytes and macrophages. The class given is cell-based, human. As to conditions: THP-1 macrophages; 3 mM RRx-001 16 hours. The protocol: Expression of ARE proteins was assayed in hMSC, macrophages, and monocytes following in vitro irradiation of the cells, which were pretreated with RRx-001 or vehicle. Protein expression was assayed by Western blotting and protein quantification.
hMSC were treated for 16 hours with […] RRx-001 or the vehicle control (0.05% DMSO), irradiated at 10 Gy or sham-irradiated and the protein collected 8 or 24 hours post-sham or irradiation. Human monocytic leukemic THP-1 and U937 cells were differentiated into macrophages with 50 nM Phorbol 12-myristate 13-acetate (PMA) for 24 hours before treatment. Differentiated and non-differentiated cells were treated with […] RRx-001 or 0.05% DMSO (vehicle control) for 16 hours prior to radiation. The cells were irradiated at 5 Gy or sham-irradiated and collected 4-8 hours later for both analysis. For each experiment, duplicates of each sample were run.

The subject of data set [1] is male Syrian Golden Hamsters. As to the kind of experiment: Oral mucositis induced by acute radiation in hamsters. It is filed as in vivo. The protocol:
Fifty-six (56) male Syrian Golden Hamsters were used in the study. Mucositis was induced by administering an acute radiation dose of 40 Gy directed to the left buccal cheek pouch on Day 0 at a rate of 2-2.5 Gy/min. Mucositis was evaluated clinically starting on Day 6 and continuing on alternate days until Day 28. Hamsters reaching a mucositis severity score of 4 or higher received buprenorphine (0.5 mg/kg) SC twice a day for 48 hours or until score dropped below 4.
Dosing was scheduled as follows: for animals in Groups 1-4, animals were dosed with RRx-001 (1, 3, or 10 mg/kg) or vehicle (1:2 DMA:PEG400 vol:vol ratio) once a day (QD) on Days −4, −1, 1, 4, 7, 11, 14, 18, 21, and 25 via intraperitoneal (IP) administration; animals in Groups 5-7 were dosed QD with RRx-001 (1, 3, or 10 mg/kg) on Days −4, −1, 1, 8, 15, and 22.
The significance of differences observed between the control and treatment group was evaluated by comparing the days with mucositis scores≥3 and <3 between groups using chi-square analysis. […] The percentage of animal days with a score of ≥3 in the Vehicle Group was 57.29%. […] There were numerous days where animals dosed with RRx-001 had percent ulceration days that were lower (which can be interpreted as ameliorative of disease severity) in comparison to vehicle-dosed animals.
An analysis of the severity of mucositis was performed using the Mann-Whitney rank sum analysis to compare the visual mucositis scores for the treatment group to the Vehicle control group on each day of evaluation. In this analysis, 2 days of significant reduction in the mucositis score are generally required before it is regarded as meaningful.
This evaluation was intended to clarify which days of treatment had its maximal impact on the course of ulcerative mucositis. There were numerous days where animals dosed with RRx-001 had percent ulceration days that were lower (which can be interpreted as ameliorative of disease severity) in comparison to vehicle-dosed animals.

The test system of the next data set is Nrf2. As to conditions: tumor cells exposed to RRx-001; Ning et al., Oncotarget 2015; cited from earlier work.

For the molecule `O=C(CBr)N1CC([N+](=O)[O-])([N+](=O)[O-])C1` [RRx-001, 2-bromo-1-(3,3-dinitroazetidin-1-yl)ethan-1-one], the “bone marrow cellularity compared to the vehicle control” value with bone marrow (7 Gy TBI, 10 mg/kg IP 24 h before, day 7) is listed as “slight increase in cellularity”. Moreover, the “hematopoietic recovery by grade of bone marrow cellularity compared with control” value with bone marrow (7 Gy TBI, 10 mg/kg IP 24 h before, day 14, 10 mg/kg) was “significantly accelerated hematopoietic recovery; also recorded: significant increase in bone marrow cellularity”. Besides, the number of megakaryocytes result in the data set with bone marrow (7 Gy TBI, 10 mg/kg, between days 7-28) is recorded as “steady increase”; with bone marrow (7 Gy TBI, 10 mg/kg, day 2), “reduced”; with bone marrow (7 Gy TBI, 10 mg/kg, day 7) it was “severely depleted”. In addition, the “bone marrow cellularity grade” value in the data set with bone marrow (after 7 Gy TBI, 10 mg/kg IP 24 h before) is listed as 1 (grade 1: <10%). Further, the HO-1 expression entry in the data set with THP-1 cells was “no significant increase in HO-1”. Moreover, the “daily mucositis scores compared to the Vehicle control group” value in data set [1] (1 mg/kg IP) and in data set [1] (10 mg/kg IP) was “multiple days of significant improvement in mucositis scores” in each case. In addition, the “mean daily mucositis scores” value is “modest but significant enhancement of disease healing” in data set [1] (10 mg/kg IP, Group 2, dosed Days −4, −1, 1, 40 Gy); “tracked fairly close to each other, and with Vehicle dosed controls” in data set [1] (all other treatment groups (Groups 3-7)). Moreover, the “body weight by study termination” value in data set [1] (10 mg/kg IP, Groups 2 and 5, after cessation of dosing) is recorded as “rebounded back to be in line with other groups”. Besides, the “tolerability of the highest dose” value in data set [1] (10 mg/kg IP, Groups 2 and 5, dosing discontinued after Day 1) was “adverse side effects”. The body weight result in data set [1] (10 mg/kg IP, Groups 2 and 5, during study) is recorded as “lower weights than all other groups”; in data set [1] (all groups except Groups 2 and 5 (1 and 3 mg/kg IP)) it was “steadily gained weight”. Further, the percent ulceration entry in data set [1] (10 mg/kg, Groups 2 and 5, only dosed on Days −4, −1, and 1) is “best response in decreasing percent ulceration”. Besides, the “percent days of ulceration, twice weekly dosing vs one time per week” value in data set [1] (3 and 1 mg/kg, 1 mg/kg, Group 4 vs Group 7) was “more beneficial effects on percent days of ulceration”. For the same molecule, in data set [1] (Group 2, 10 mg/kg on Days −4, −1, 1, p<0.01), the “percentage of days with a mucositis score of ≥3 in comparison to the Vehicle Group” value was “statistically lower”. In addition, the “percent ulceration days in comparison to vehicle-dosed animals” value in data set [1] (numerous days) is “lower”. The “nuclear presence of transcription factor Nrf2” value with Nrf2 is “increased nuclear presence”.
